Laboratory results from ChEMBL document CHEMBL4402571, “Methylation of Daptomycin Leading to the Discovery of Kynomycin, a Cyclic Lipodepsipeptide Active against Resistant Pathogens” (J Med Chem, 2020).
Values after ≈ are worked out from the molar mass of the structure shown.

Tests used:
[1] = test system: Enterococcus faecium; assay: Antibacterial activity against Enterococcus faecium ET60 by broth microdilution method; assay type: functional
[2] = test system: Enterococcus faecalis; assay: Antibacterial activity against Streptococcus faecalis by broth microdilution method; assay type: functional
[3] = test system: Enterococcus faecium; assay: Antibacterial activity against Enterococcus faecium ET6 by broth microdilution method; assay type: functional
[4] = test system: Staphylococcus aureus; assay: Antibacterial activity against methicillin-resistant Staphylococcus aureus SA14 by broth microdilution method; assay type: functional
[5] = test system: Staphylococcus aureus; assay: Antibacterial activity against methicillin-resistant Staphylococcus aureus SA11 by broth microdilution method; assay type: functional
[6] = test system: Staphylococcus aureus; assay: Antibacterial activity against methicillin-resistant Staphylococcus aureus SA86 by broth microdilution method; assay type: functional
[7] = test system: Staphylococcus aureus; assay: Antibacterial activity against methicillin-resistant Staphylococcus aureus SA88 by broth microdilution method; assay type: functional
[8] = test system: Staphylococcus aureus; assay: Antibacterial activity against Staphylococcus aureus ATCC 29213 by broth microdilution method; assay type: functional
[9] = test system: Enterococcus faecalis; assay: Antibacterial activity against Enterococcus faecalis ATCC 29212 by broth microdilution method; assay type: functional
[10] = test system: Erythrocyte; assay: Hemolytic activity against rat RBC at 320 ug/ml measured after 1 hr; assay type: ADME, cell-based
[11] = test system: HEK293; assay: Cytotoxicity against HEK293 cells assessed as reduction in cell viability at 40 mg/ml measured after 24 hrs by MTT assay; assay type: cell-based; conditions: human, hek293, 24 h
[12] = test system: HEK293; assay: Cytotoxicity against HEK293 cells assessed as reduction in cell viability at 80 mg/ml measured after 24 hrs by MTT assay; assay type: cell-based; conditions: human, hek293, 24 h
[13] = Aqueous solubility of the compound in 0.9% NaCl at >= 100 measured after 15 mins; assay type: physicochemical; conditions: buffer, 0.25 h
[14] = test system: HEK293; assay: Cytotoxicity against HEK293 cells assessed as reduction in cell viability at >= 20 mg/ml measured after 24 hrs by MTT assay; assay type: cell-based; conditions: human, hek293, 24 h
[15] = test system: Staphylococcus aureus; assay: Bactericidal activity against Staphylococcus aureus ATCC 29213 incubated prior to replating on agar plate measured after overnight incubation; assay type: functional
[16] = test system: Enterococcus faecalis; assay: Bactericidal activity against Enterococcus faecalis ATCC 29212 incubated prior to replating on agar plate measured after overnight incubation; assay type: functional
[17] = test system: Staphylococcus aureus; assay: Antibacterial activity against Staphylococcus aureus USA300 infected in Balb/c mouse model of sepsis assessed as mouse survival at 0.925 mg/kg, sc administered twice daily for 5 days starting from 1 hr post-infection relative to control; assay type: functional
[18] = test system: Staphylococcus aureus; assay: Antibacterial activity against methicillin-resistant Staphylococcus aureus ATCC 33591 infected in iv dosed CD-1 ICR mouse administered as single dose measured after 7 days; assay type: functional; conditions: ATCC 33591, iv, 168 h
[19] = test system: Staphylococcus aureus; assay: Antibacterial activity against methicillin-resistant Staphylococcus aureus 0114 infected in iv dosed CD-1 ICR mouse administered as single dose measured after 7 days; assay type: functional; conditions: Staphylococcus aureus, 0114, iv, 168 h
[20] = test system: Enterococcus faecalis; assay: Antibacterial activity against Enterococcus faecalis ZS129 by broth microdilution method; assay type: functional
[21] = test system: Enterococcus faecalis; assay: Antibacterial activity against Enterococcus faecalis T1027 by broth microdilution method; assay type: functional
[22] = test system: Staphylococcus aureus; assay: Antibacterial activity against Staphylococcus aureus ATCC 29213 assessed as mutation prevention concentration measured after 72 hrs; assay type: functional; conditions: ATCC 29213, 72 h
[23] = test system: Enterococcus faecalis; assay: Antibacterial activity against Enterococcus faecalis ATCC 29212 assessed as mutation prevention concentration measured after 72 hrs; assay type: functional; conditions: ATCC 29212, 72 h
[24] = test system: Staphylococcus aureus; assay: Antibacterial activity against Staphylococcus aureus ATCC 29213 assessed as ratio of MIC after and before 1 serial passage at sub-MIC by broth microdilution method; assay type: functional
[25] = test system: Staphylococcus aureus; assay: Antibacterial activity against Staphylococcus aureus ATCC 29213 assessed as ratio of MIC after and before 7 serial passages at sub-MIC by broth microdilution method; assay type: functional

Q: For `CCCCCCCCCC(=O)N[C@@H](Cc1c[nH]c2ccccc12)C(=O)N[C@@H](CC(N)=O)C(=O)N[C@@H](CC(=O)O)C(=O)N[C@@H]1C(=O)N(C)CC(=O)N[C@@H](CCCN)C(=O)N[C@@H](CC(=O)O)C(=O)N[C@H](C)C(=O)N[C@@H](CC(=O)O)C(=O)NCC(=O)N[C@H](CO)C(=O)N[C@@H]([C@H](C)CC(=O)O)C(=O)N[C@@H](CC(=O)c2ccccc2N)C(=O)O[C@@H]1C`, which MIC [1] is on record?
A: 4 µg/mL (≈ 2.45 µM)

Q: And the MIC [2]?
A: 2 µg/mL (≈ 1.22 µM)

Q: What about the MIC [3] of the same compound?
A: 8 µg/mL (≈ 4.89 µM)

Q: And the MIC [4]?
A: 0.25 µg/mL (≈ 0.153 µM)

Q: What about the MIC [5] of the same compound?
A: 0.5 µg/mL (≈ 0.306 µM)

Q: What about the MIC [6] of the same compound?
A: 0.5 µg/mL (≈ 0.306 µM)

Q: And the MIC [7]?
A: 0.5 µg/mL (≈ 0.306 µM)

Q: What about the MIC [8] of the same compound?
A: 0.5 µg/mL (≈ 0.306 µM)

Q: And the MIC [9]?
A: 8 µg/mL (≈ 4.89 µM)

Q: Which Activity [10] does the source give for `CCCCCCCCCC(=O)N[C@@H](Cc1c[nH]c2ccccc12)C(=O)N[C@H](CC(N)=O)C(=O)N[C@@H](CC(=O)O)C(=O)N[C@@H]1C(=O)NCC(=O)N[C@@H](CCCN)C(=O)N[C@@H](CC(=O)O)C(=O)N[C@H](C)C(=O)N[C@@H](CC(=O)O)C(=O)NCC(=O)N[C@H](CO)C(=O)N[C@@H]([C@H](C)CC(=O)O)C(=O)N[C@@H](CC(=O)c2ccccc2NC)C(=O)O[C@@H]1C` here?
A: Non-Toxic

Q: And the Activity [11]?
A: Non-Toxic

Q: And the Activity [12]?
A: Toxic

Q: And the solubility [13]?
A: Soluble

Q: Which results are given for `CCCCCCCCCC(=O)N[C@@H](Cc1c[nH]c2ccccc12)C(=O)N[C@H](CC(N)=O)C(=O)N[C@@H](CC(=O)O)C(=O)N[C@@H]1C(=O)NCC(=O)N[C@@H](CCCN)C(=O)N[C@@H](CC(=O)O)C(=O)N[C@H](C)C(=O)N[C@@H](CC(=O)O)C(=O)NCC(=O)N[C@H](CO)C(=O)N[C@@H]([C@@H](C)CC(=O)O)C(=O)N[C@@H](CC(=O)c2ccccc2N)C(=O)O[C@@H]1C` [listing 1 of 2 here]?
A: Activity [10]: Non-Toxic; Activity [14]: Toxic; solubility [13]: Soluble

Q: With `CCCCCCCCCC(=O)N[C@@H](Cc1c[nH]c2ccccc12)C(=O)N[C@H](CC(N)=O)C(=O)N[C@@H](CC(=O)O)C(=O)N[C@@H]1C(=O)NCC(=O)N[C@@H](CCCN)C(=O)N[C@@H](CC(=O)O)C(=O)N[C@H](C)C(=O)N[C@@H](CC(=O)O)C(=O)NCC(=O)N[C@H](CO)C(=O)N[C@@H]([C@@H](C)CC(=O)O)C(=O)N[C@@H](CC(=O)c2ccccc2N)C(=O)O[C@@H]1C` [listing 2 of 2 here] as the compound, how does the MIC [1] read?
A: 2 µg/mL (≈ 1.23 µM)

Q: And the MIC [2]?
A: 0.5 µg/mL (≈ 0.309 µM)

Q: And the MIC [3]?
A: 4 µg/mL (≈ 2.47 µM)

Q: And the MIC [4]?
A: 0.5 µg/mL (≈ 0.309 µM)

Q: What about the MIC [5] of the same compound?
A: 2 µg/mL (≈ 1.23 µM)

Q: And the MIC [6]?
A: 0.5 µg/mL (≈ 0.309 µM)

Q: And the MIC [7]?
A: 0.5 µg/mL (≈ 0.309 µM)

Q: What about the MIC [8] of the same compound?
A: 0.5 µg/mL (≈ 0.309 µM)

Q: What about the MIC [9] of the same compound?
A: 4 µg/mL (≈ 2.47 µM)

Q: What about the MBC [15] of the same compound?
A: 0.25 µg/mL (≈ 0.154 µM)

Q: And the MBC [16]?
A: 16 µg/mL (≈ 9.87 µM)

Q: And the survival at 0.925 mg/kg [17]?
A: 50%

Q: And the ED50 [18]?
A: 2.14 mg/kg

Q: And the ED50 [19]?
A: 2.19 mg/kg

Q: And the MIC [20]?
A: 0.5 µg/mL (≈ 0.309 µM)

Q: And the MIC [21]?
A: 16 µg/mL (≈ 9.87 µM)

Q: And the MPC [22]?
A: 16 µg/mL

Q: And the MPC [23]?
A: 32 µg/mL

Q: And the Ratio [24]?
A: 2

Q: And the Ratio [25]?
A: 8
